Reference: patent US9090900B2, “Coryneform bacterium transformant and process for producing phenol using the same” (priority 2010, dated 2015)
Read-outs that look alike come from different tables or passages of the source.

Columns and labels:
[1] = system: Escherichia coli JM109; settings: LB liquid medium, 37° C.
Method: (§1) A growth inhibition test in aerobic culture was performed to examine the influence of phenol on Corynebacterium glutamicum, Escherichia coli, and Pseudomonas putida. Pseudomonas putida S12, which was used for the test, is reported to be a solvent-resistant strain. In the report, disclosed is an unparalleled technology using the strain as a host in phenol production.
Escherichia coli JM109 was applied to LB agar medium (1% polypeptone, 0.5% yeast extract, 0.5% NaCl and 1.5% agar) and was left stand in the dark at 37° C. for 15 hours.
An inoculation loop of the Escherichia coli JM109 grown on a plate as above was inoculated into a test tube containing 10 mL of LB liquid medium (1% polypeptone, 0.5% yeast extract, and 0.5% NaCl), and aerobic culture was performed with shaking at 37° C. for 13 hours.
(§2) The Escherichia coli JM109 grown in the above conditions was inoculated into 100 mL of LB liquid medium in such a way that the initial bacterial cell concentration would be OD610=0.05, phenol was added at the same time in such a way that the final concentration would be 0, 0.16, or 0.20 mM, and aerobic culture was performed with shaking at 37° C. The growth of bacterial cells was determined by absorbance measurement at OD610.
(§3) The growth of bacterial cells was determined by absorbance measurement at OD610.

[2] = system: Corynebacterium glutamicum R; settings: A liquid medium, 33° C.
Method: as §1
Corynebacterium glutamicum R was applied to A agar medium (2 g of (NH2)2CO3 7 g of (NH4)2SO4, 0.5 g of KH2PO4, 0.5 g of K2HPO4, 0.5 g of MgSO4.7H2O, 1 mL of 0.06% (w/v) Fe2SO4.7H2O+0.042% (w/v) MnSO4.2H2O, 1 mL of 0.02% (w/v) biotin solution, 2 mL of 0.01% (w/v) thiamin solution, 2 g of yeast extract, 7 g of vitamin assay casamino acid, 40 g of glucose, and 15 g of agar were suspended in 1 L of distilled water) and was left stand in the dark at 33° C. for 15 hours.
An inoculation loop of the Corynebacterium glutamicum R grown on a plate as above was inoculated into a test tube containing 10 mL of A liquid medium (2 g of (NH2)2CO3 7 g of (NH4)2SO4, 0.5 g of KH2PO4, 0.5 g of K2HPO4, 0.5 g of MgSO4.7H2O, 1 mL of 0.06% (w/v) Fe2SO4.7H2O+0.042% (w/v) MnSO4.2H2O, 1 mL of 0.02% (w/v) biotin solution, 2 mL of 0.01% (w/v) thiamin solution, 2 g of yeast extract, 7 g of vitamin assay casamino acid, and 40 g of glucose were suspended in 1 L of distilled water) and was aerobically cultured with shaking at 33° C. for 13 hours.
as §2, with “Corynebacterium glutamicum R” for “Escherichia coli JM109”, “A” for “LB”, “0.16, 0.2, 0.24,” for “0.16,”, “0.32” for “0.20”, “33°” for “37°”
as §3

[3] = system: Pseudomonas putida F1; settings: LB (+glucose) liquid medium, 30° C.
Method: as §1
(§4) Pseudomonas putida F1 and S12 were applied to LB agar medium (1% polypeptone, 0.5% yeast extract, 0.5% NaCl and 1.5% agar) and were left stand in the dark at 30° C. for 15 hours.
(§5) An inoculation loop of each of the Pseudomonas putida F1 and S12 grown on a plate as above was inoculated into a test tube containing 10 mL of LB (+glucose) liquid medium (1% polypeptone, 0.5% yeast extract, 0.5% NaCl and 0.4% glucose), and aerobic culture was performed with shaking at 30° C. for 13 hours.
(§6) The Pseudomonas putida F1 and S12 grown in the above conditions were each inoculated into 100 mL of LB (+glucose) liquid medium in such a way that the initial bacterial cell concentration would be OD610=0.05, phenol was added at the same time in such a way that the final concentration would be 0, 0.10, or 0.20 […], and aerobic culture was performed with shaking at 30° C.
as §3

[4] = system: Pseudomonas putida S12; settings: LB (+glucose) liquid medium, 30° C.
Method: as §1, §4, §5, §6, §3

Oc1ccccc1 [phenol]
influence of phenol on aerobic proliferation (OD610) ([1]; 0.16% phenol): significantly affected
influence of phenol on aerobic proliferation (OD610) ([1]; 0.20% phenol): completely inhibited
influence of phenol on aerobic proliferation (OD610) ([2]; 0.16% phenol): hardly affected
influence of phenol on aerobic proliferation (OD610) ([2]; 0.20% phenol): favorable growth
influence of phenol on aerobic proliferation (OD610) ([2]; 0.24% phenol): able to proliferate
influence of phenol on aerobic proliferation (OD610) ([3]; 0.10% phenol): significantly affected
influence of phenol on aerobic proliferation (OD610) ([3]; 0.20% phenol): completely inhibited
influence of phenol on aerobic proliferation (OD610) ([4]; 0.10% phenol): significantly affected
influence of phenol on aerobic proliferation (OD610) ([4]; 0.20% phenol): completely inhibited
